Laboratory results reported in patent US11324743B2, “Treatment for the non alcoholic steatohepatitis and fibrosis” (METABOLYS, priority 2016, dated 2022).

Assays:
NASH mice (STAM model) [1] = experiment: In vivo study 2 to assess effects on fibrosis (STAM model); parameters: species or system C57BL/6 mice
Text: (§1) The study was made on STAM model.
(§2) Pathogen-free fourteen day-pregnant C57BL/6 mice have been obtained from Japan SLC, Inc. (Japan). NASH has been established in male mice by a single subcutaneous injection of streptozotocin (Sigma, USA) after birth and feeding with a high fat diet (CLEA Japan, Japan) ad libitum after four weeks of age (day 28±2). Mice have been randomized into three groups of ten mice at six weeks of age (day 42±2), and three groups of ten mice at nine weeks of age (day 63±2), in the days before the start of treatment. Individual body weights have been measured daily during the treatment period. Food consumption has been measured twice per week during the treatment period. Survival, clinical signs and behavior of mice have been monitored daily.
The fibrosis in vivo study had 3 arms:
(§3) Group 1 (Vehicle): Ten NASH mice have been orally administered the same vehicle (0.5% methyl cellulose in water) as the mice receiving compound (1).
Group 2 (Telmisartan): Five mice have been administered the same vehicle supplemented with Telmisartan at a dose of 100 mg/kg (in 0.5% methyl cellulose in water) once daily from nine to twelve (9 to 12) weeks of age.
Group 3 (compound (1)): Ten NASH mice have been orally administered vehicle supplemented with compound (1) at a dose of 100 mg/kg (in 0.5% methyl cellulose in water) once daily from nine to twelve (9 to 12) weeks of age. The assessed parameters and histological outcome measures are described below.
(§4) The following measurements have been conducted for both in vivo studies: • Individual liver weight • Individual body weight • Plasma ALT (Alanine AminoTransferase), AST (Aspartate AminoTransferase), triglyceride, and total cholesterol have been measured by FUJI DRI-CHEM (Fujifilm, Japan) • Liver triglyceride has been quantified by Triglyceride E-test kit (Wako, Japan) • Histological analyses for liver sections (according to routine methods) • HE (Hematoxylin Eosin) staining and estimation of NAFLD Activity score (NAS) […]

NASH mice (STAM model) [2] = experiment: In vivo study 1 to assess effects on NASH (STAM model); parameters: species or system C57BL/6 mice
Text: as §1, §2
The NASH in vivo study had 3 arms:
as §3
Group 2 (Telmisartan): Five mice have been administered the same vehicle supplemented with Telmisartan at a dose of 100 mg/kg (in 0.5% methyl cellulose in water) once daily from six to nine (6 to 9) weeks of age.
Group 3 (compound (1)): Ten NASH mice have be orally administered vehicle supplemented with compound (1) at a dose of 100 mg/kg (in 0.5% methyl cellulose in water) once daily from six to nine (6 to 9) weeks of age. The assessed parameters and histological outcome measures are described below.
as §4

STAM animal model = settings: reference compound; cited from earlier work

O=C(O)CCC(=O)c1ccc(OCCN2CCN(c3ccccn3)CC2)cc1 [Compound (1)]
amount of liver triglycerides (TG) (NASH mice (STAM model) [1]; 100 mg/kg orally once daily from 9 to 12 weeks of age (FIG. 2)): reduction
amount of plasma triglycerides (TG) (NASH mice (STAM model) [1]; 100 mg/kg orally once daily from 9 to 12 weeks of age (FIG. 3), effect especially in study 2): reduction
NAFLD activity score (NAS) (NASH mice (STAM model) [1]; 100 mg/kg orally once daily from 9 to 12 weeks of age, in comparison to both vehicle and Telmisartan): significant reduction
amount of liver triglycerides (TG) (NASH mice (STAM model) [2]; 100 mg/kg orally once daily from 6 to 9 weeks of age (FIG. 2)): reduction
amount of plasma triglycerides (TG) (NASH mice (STAM model) [2]; 100 mg/kg orally once daily from 6 to 9 weeks of age (FIG. 3)): reduction
NAFLD activity score (NAS) (NASH mice (STAM model) [2]; 100 mg/kg orally once daily from 6 to 9 weeks of age, in comparison to both vehicle and Telmisartan): significant reduction

CCCc1nc2c(C)cc(-c3nc4ccccc4n3C)cc2n1Cc1ccc(-c2ccccc2C(=O)O)cc1 [Telmisartan]
activity to treat NASH and fibrosis (STAM animal model): active
